Measurements taken from patent US20240139277A1, “DRUG CONTAINING ACTIVE SULFUR COMPOUND AS ITS MAIN COMPONENT” (priority 2020, published 2024).
Entries after “also recorded” stand apart in the source; their conditions may differ.

How the values were obtained:
main protease (3CLpro) [1] = molecular target: T1, main protease (3CLpro) (Severe acute respiratory syndrome coronavirus 2, UniProt P0DTC1); assay: SARS-CoV-2 protease inhibition test, main protease; assay type: biochemical; details: 0.3 mM, 37 degrees Celsius, 15 minutes, MCA fluorogenic substrate, compared to control (GSSSG(−)); FIG. 5
[2] = molecular target: T2, papain-like protease (PLpro) (Severe acute respiratory syndrome coronavirus 2, UniProt P0DTC1); assay: SARS-CoV-2 protease inhibition test, papain-like protease; assay type: biochemical; details: 0.3 mM, 37 degrees Celsius, 15 minutes, MCA fluorogenic substrate, compared to control (GSSSG(−)); FIG. 5
[3] = test system: influenza virus PR8 strain (A/PR/8/34 (H1N1)); assay: anti-influenza effect in mice (influenza A virus pneumonia); assay type: in vivo, B6 mice; details: nasal administration 50 μL, 1 mM, six hours before virus inoculation; vs PBS group; FIG. 3
Method: An influenza virus PR8 strain (A/PR/8/34 (H1N1), Akaike T. et al, Journal of Infectious Diseases, 170, 1023-1026, 1994) (2000 pfu/ml (PBS)) was administered to each of a plurality of B6 mice (ten 8-week-old mice for each group). This administration was performed by intratracheal administration of a virus solution (PBS 40 μL) under anesthesia. Furthermore, nasal administration of GSSSG (50 μL,1 mM) was performed under anesthesia six hours before the virus inoculation and then a survival rate of the mice, their lung damage (14 days after infection), and various kinds of inflammatory cell counts (three days after infection) were measured chronologically and analyzed. A group to which the GSSSG was administered was compared with a control group (PBS-administered group/no GSSG administered) concerning the survival rate, whether there is any lung damage or not, and the various kinds of inflammatory cell counts. Regarding the lung damage, pneumonia images were evaluated by means of HE staining. Regarding the measurement of the inflammatory cell counts, bronchoalveolar lavage (BAL) was performed by using PBS and the number of cells in BAL and cytokine were analyzed.

pulmonary fibrosis model = assay: pulmonary fibrosis model; assay type: in vivo; details: mice
bronchial asthma model = assay: bronchial asthma model; assay type: in vivo; details: mice
[4] = test system: SARS-CoV-2 JPN/TY/WK-521 strain; assay: anti-SARS-CoV-2 action test in VeroE6/TMPRSS2 cells, quantitative PCR; assay type: cell-based; details: GSSSG 10 μM, 100 μM, 300 μM vs no GSSSG; MOI 0.01; FIG. 6
[5] = test system: porcine pancreas elastase (PPE) induced emphysema models; assay: elastase-induced COPD / emphysema model; assay type: in vivo, CARS2-deficient B6 mice
Method: FIG. 4 is an example indicating the therapeutic effect of the GSSSG on elastase-induced COPD; and airway administration of GSSSG (50 μL, 1 mM) to porcine pancreas elastase (PPE) induced emphysema models of CARS2-deficient B6 mice^*1 was performed three times, that is, six hours before, two days later, and four days later, and an inflammatory cell count in a bronchial alveolar lavage fluid (BALF) five days after the PPE administration was measured and emphysema lesions were analyzed by using CT. The inflammatory cell count was measured in the same manner as in the example of FIG. 3. […] 2017.

[6] = test system: novel coronavirus (SARS-CoV-2); details: reported in NPL 2 and NPL 3; cited from earlier work
main protease (3CLpro) [7] = molecular target: T1, main protease (3CLpro); details: reported in literature; cited from earlier work
[8] = molecular target: T2, papain-like protease (PLpro); details: reported in literature; cited from earlier work

SMILES | inhibitory activity on protease activity (3CLpro) (main protease (3CLpro) [1]) | inhibitory activity on protease activity (PLpro) [2] | effect on influenza A virus pneumonia [3] | therapeutic effect in pulmonary fibrosis model (pulmonary fibrosis model) | therapeutic effect in bronchial asthma model (bronchial asthma model) | RNA viral load [4] | inflammatory cell count in bronchial alveolar lavage fluid (BALF) ([5]; airway administration 50 μL, 1 mM, three times, five days after PPE administration, vs GSSSG(−), FIG. 4) | emphysema lesions by CT ([5]; airway administration 50 μL, 1 mM, three times, vs GSSSG(−), FIG. 4) | therapeutic effect in COPD model ([5]; mice) | proliferation suppression effect on SARS-CoV-2 [6] | inhibitory activity on 3CLpro as reported in NPL (main protease (3CLpro) [7]) | inhibitory activity on PLpro as reported in NPL [8]
N[C@@H](CCC(=O)N[C@@H](CSSSC[C@H](NC(=O)CC[C@H](N)C(=O)O)C(=O)NCC(=O)O)C(=O)NCC(=O)O)C(=O)O [GSSSG, glutathione trisulfide] | same level of strong inhibitory activity | same level of strong inhibitory activity | preventive and therapeutic effects; also recorded: improving severe pneumonia | therapeutic effect of the GSSSG was also confirmed; also recorded: alleviates respiratory tract and lung damage and pulmonary fibrosis | therapeutic effect of the GSSSG was also confirmed; also recorded: alleviates respiratory tract and lung damage and pulmonary fibrosis | RNA viral load decreases along with an increase in the dosage | small as compared to that of the no GSSSG-administered group | remission of the emphysema has been achieved | therapeutic effect of the GSSSG was also confirmed; also recorded: alleviates respiratory tract and lung damage and pulmonary fibrosis |  |  | 
O=c1c2ccccc2[se]n1-c1ccccc1 [Ebselen, 2-Phenyl-1,2-benzoisoselenazol-3(2H)-one] |  |  |  |  |  |  |  |  |  | conspicuous proliferation suppression effect | strong inhibitory activity | strong inhibitory activity
